Reference: ChEMBL document CHEMBL1201862, “PubChem BioAssay data set” (2004)
One block for each molecule: values may come before it. The source made the active and inactive calls.

Experiments:
CHO-K1 = assay: (§1) Counterscreen for antagonists of the orexin 1 receptor (OX1R; HCRTR1): Homogeneous time resolved fluorescence (HTRF)-based cell-based dose response assay to identify antagonists of the parental CHO-K1 cell line. [Related pubchem assays (depositor defined):AID434989, AID435008, AID463079, AID485270, AID492963, AID492964, AID492965, AID493232, AID504699, AID504701]; format: functional; conditions: Cricetulus griseus
[1] = as §1, with “Fluorescence-based” for “Homogeneous time resolved fluorescence (HTRF)-based”, “cell-based high throughput” for “cell-based”, “CHO” for “CHO-K1”; format: functional
[2] = HEp-2 cell cytotoxicity, dose response, cytotoxicity control for RSV inhibitor project, HTS (AID 2410); format: functional; conditions: human respiratory syncytial virus
[3] = target: T1, Orexin/Hypocretin receptor type 1 (Homo sapiens, UniProt O43613); assay: Homogeneous Time Resolved Fluorescence (HTRF)-based cell-based high throughput dose response assay for antagonists of the orexin 1 receptor (OX1R; HCRTR1). [Related pubchem assays (depositor defined):AID434989, AID435008, AID463079, AID485270, AID492963, AID492964, AID492965, AID493232, AID504717, AID504718]; format: functional
T1 sequence (O43613 whole entry): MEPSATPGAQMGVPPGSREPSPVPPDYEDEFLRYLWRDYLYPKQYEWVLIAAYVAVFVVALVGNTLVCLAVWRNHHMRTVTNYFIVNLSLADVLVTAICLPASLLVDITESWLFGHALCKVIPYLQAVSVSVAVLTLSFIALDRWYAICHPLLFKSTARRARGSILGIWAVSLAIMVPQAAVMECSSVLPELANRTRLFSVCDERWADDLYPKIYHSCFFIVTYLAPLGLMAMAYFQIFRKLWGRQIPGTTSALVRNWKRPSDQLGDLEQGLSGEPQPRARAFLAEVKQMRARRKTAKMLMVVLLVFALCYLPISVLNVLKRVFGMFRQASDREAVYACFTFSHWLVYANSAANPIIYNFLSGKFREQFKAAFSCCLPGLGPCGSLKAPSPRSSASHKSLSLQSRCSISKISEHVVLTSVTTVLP

[4] = target: T1, Orexin/Hypocretin receptor type 1; assay: Fluorescence-based cell-based high throughput dose response assay for antagonists of the orexin 1 receptor (OX1R; HCRTR1). [Related pubchem assays (depositor defined):AID434989, AID435008, AID463079, AID485270, AID492963, AID492964, AID492965, AID493232, AID504717, AID504718]; format: functional
CAAX prenyl protease 2 = target: T2, CAAX prenyl protease 2 (Saccharomyces cerevisiae S288c, UniProt Q03530); format: biochemical
T2 sequence (Q03530 whole entry): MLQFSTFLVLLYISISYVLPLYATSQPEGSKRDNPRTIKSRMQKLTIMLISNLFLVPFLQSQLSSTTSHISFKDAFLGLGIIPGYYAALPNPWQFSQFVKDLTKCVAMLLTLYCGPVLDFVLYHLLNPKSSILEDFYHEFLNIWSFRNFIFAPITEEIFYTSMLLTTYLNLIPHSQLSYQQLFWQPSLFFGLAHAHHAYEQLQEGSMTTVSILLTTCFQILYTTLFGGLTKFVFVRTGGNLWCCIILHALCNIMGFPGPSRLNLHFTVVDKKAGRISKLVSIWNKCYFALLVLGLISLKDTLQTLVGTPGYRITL

[5] = mammalian cell cytotoxicity, dose response, cytotoxicity control, plate reader, cherry-pick samples (AID 504397); format: functional, cell-based
SUMO-activating enzyme [6] = target: T3, SUMO-activating enzyme (Homo sapiens, UniProt Q9UBT2); assay: inhibitors of in vitro SUMOylation cascade, primary screen, biochemical, HTRF, uHTS (AID 2006); format: protein-complex assay
T3 sequence (Q9UBE0 whole entry): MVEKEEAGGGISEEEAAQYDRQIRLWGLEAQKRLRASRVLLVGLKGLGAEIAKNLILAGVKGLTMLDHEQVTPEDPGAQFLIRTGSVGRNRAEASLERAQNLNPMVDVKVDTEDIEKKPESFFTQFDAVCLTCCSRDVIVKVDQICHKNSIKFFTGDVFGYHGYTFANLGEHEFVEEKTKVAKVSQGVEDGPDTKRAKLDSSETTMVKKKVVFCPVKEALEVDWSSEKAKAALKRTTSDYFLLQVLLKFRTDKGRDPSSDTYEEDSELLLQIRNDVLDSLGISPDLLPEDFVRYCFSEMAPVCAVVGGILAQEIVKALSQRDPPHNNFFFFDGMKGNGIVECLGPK
T3 sequence (Q9UBT2 whole entry): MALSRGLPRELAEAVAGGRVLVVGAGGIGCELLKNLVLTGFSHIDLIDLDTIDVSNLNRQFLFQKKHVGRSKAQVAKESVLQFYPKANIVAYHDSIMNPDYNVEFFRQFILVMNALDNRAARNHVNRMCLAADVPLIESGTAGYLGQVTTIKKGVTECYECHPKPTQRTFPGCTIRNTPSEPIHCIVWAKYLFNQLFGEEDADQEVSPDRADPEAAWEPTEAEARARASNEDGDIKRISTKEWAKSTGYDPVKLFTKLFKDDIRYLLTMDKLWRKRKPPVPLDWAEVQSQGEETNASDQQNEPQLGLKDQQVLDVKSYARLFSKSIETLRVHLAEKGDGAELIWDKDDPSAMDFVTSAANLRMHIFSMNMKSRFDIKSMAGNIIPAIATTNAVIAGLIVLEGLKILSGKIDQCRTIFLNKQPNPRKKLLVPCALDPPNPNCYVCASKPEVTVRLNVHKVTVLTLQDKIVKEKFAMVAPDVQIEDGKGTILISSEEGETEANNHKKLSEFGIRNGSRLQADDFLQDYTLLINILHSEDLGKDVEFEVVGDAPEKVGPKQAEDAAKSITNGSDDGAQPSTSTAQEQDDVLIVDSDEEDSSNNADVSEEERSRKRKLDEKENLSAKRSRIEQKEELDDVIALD

SUMO-activating enzyme [7] = target: T3, SUMO-activating enzyme; assay: SUMOylation inhibitor hit validation, confirmation, SUMOylation inhibitor project, biochemical, AlphaScreen (AID 2018); format: functional
[8] = target: T4, RNA-binding protein pos-1 (Caenorhabditis elegans, UniProt G5EF15); assay: inhibitors of POS-1/mex-3 RNA binding, dose response, biochemical, fluorescence polarization (AID 1964);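 note: purified POS-1 fused to maltose binding protein made in E. coli; potency of compounds blocking POS-1 binding to fluorescent RNA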
T4 sequence (G5EF15 whole entry): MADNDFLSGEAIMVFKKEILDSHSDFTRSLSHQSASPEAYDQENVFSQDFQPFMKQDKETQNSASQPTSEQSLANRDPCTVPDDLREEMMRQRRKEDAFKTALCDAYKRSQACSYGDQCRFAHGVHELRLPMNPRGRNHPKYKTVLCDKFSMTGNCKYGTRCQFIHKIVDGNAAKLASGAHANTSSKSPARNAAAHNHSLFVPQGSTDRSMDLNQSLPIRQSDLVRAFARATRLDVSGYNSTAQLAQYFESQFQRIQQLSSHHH

[9] = target: T5, Zinc finger protein mex-5 (Caenorhabditis elegans, UniProt Q9XUB2); assay: MEX-5/TCR-2 RNA interaction inhibitors, dose response, biochemical, C. elegans, fluorescence polarization (AID 1960)
T5 sequence (Q9XUB2 whole entry): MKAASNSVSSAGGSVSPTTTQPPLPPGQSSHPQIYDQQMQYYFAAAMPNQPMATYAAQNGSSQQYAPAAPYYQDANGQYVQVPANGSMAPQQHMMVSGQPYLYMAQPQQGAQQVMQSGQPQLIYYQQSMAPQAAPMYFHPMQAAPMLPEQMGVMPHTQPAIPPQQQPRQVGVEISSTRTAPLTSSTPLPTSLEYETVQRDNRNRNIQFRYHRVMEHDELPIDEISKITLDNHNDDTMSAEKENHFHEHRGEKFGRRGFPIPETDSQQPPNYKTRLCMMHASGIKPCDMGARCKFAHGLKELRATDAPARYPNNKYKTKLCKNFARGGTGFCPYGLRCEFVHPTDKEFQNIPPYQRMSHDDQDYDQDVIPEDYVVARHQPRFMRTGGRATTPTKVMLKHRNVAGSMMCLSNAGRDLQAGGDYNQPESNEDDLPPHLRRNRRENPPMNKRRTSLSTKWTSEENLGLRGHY

[10] = target: Sphingosine 1-phosphate receptor 4 (Homo sapiens, UniProt O95977); assay: Fluorescence dose response cell-based high throughput screening assay for agonists of the Sphingosine 1-Phosphate Receptor 4 (S1P4). [Related pubchem assays: 1509 (Primary screen.), 1523 (Confirmation screen in triplicates.)]; format: functional
Chain of Sphingosine 1-phosphate receptor 4 (O95977 whole entry): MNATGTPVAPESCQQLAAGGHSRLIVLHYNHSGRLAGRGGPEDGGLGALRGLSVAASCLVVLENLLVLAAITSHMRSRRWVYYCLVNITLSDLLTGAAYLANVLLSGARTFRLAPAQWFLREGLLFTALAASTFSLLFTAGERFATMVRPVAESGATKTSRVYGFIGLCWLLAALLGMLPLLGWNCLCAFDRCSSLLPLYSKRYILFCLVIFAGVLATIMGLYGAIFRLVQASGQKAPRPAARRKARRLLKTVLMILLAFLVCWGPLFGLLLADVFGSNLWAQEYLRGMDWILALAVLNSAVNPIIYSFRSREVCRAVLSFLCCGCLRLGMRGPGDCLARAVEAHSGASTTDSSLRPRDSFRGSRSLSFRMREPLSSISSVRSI

[11] = target: Sphingosine 1-phosphate receptor 1 (Homo sapiens, UniProt P21453); assay: Fluorescence-based counterscreen assay for S1P4 agonists: Cell-based dose response high throughput screening assay to identify agonists of the Sphingosine 1-Phosphate Receptor 1 (S1P1). [Related pubchem assays (depositor defined):AID1509, AID1523, AID1801, AID463107, AID463118, AID463119, AID463122, AID463123, AID463129, AID463225, AID504400, AID504460]; format: functional
Chain of Sphingosine 1-phosphate receptor 1 (P21453 whole entry): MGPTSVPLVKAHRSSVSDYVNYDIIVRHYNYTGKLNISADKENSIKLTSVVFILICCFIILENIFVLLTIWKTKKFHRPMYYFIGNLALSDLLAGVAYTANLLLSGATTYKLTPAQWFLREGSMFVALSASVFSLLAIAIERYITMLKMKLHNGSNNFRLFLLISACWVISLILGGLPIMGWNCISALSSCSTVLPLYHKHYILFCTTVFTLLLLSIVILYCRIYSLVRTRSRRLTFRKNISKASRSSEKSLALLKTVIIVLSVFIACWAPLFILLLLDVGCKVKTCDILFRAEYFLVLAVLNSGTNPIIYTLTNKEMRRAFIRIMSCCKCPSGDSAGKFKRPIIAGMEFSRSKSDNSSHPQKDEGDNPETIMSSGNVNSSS

[12] = target: Sphingosine 1-phosphate receptor 2 (Homo sapiens, UniProt O95136); assay: Dose Response Cell Based Assay for Agonists of the S1P2 Receptor. [Related pubchem assays: 729, 736, 843 ]; format: functional
Chain of Sphingosine 1-phosphate receptor 2 (O95136 whole entry): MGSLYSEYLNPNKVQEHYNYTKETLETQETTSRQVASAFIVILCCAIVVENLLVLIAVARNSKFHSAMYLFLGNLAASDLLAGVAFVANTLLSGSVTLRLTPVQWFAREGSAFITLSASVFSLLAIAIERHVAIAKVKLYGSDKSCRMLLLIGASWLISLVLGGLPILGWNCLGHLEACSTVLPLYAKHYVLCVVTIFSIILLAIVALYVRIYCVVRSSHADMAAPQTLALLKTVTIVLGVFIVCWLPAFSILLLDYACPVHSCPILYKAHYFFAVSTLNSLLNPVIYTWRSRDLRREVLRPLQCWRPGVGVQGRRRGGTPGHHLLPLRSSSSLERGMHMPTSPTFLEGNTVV

Compound: Cc1cc(C)nc(N=C(N)Nc2ccc(SC(F)F)cc2)n1
IC50 (CHO-K1): > 66.2 µM (inactive) | IC50 [1]: 22.1 µM (inactive) | CC50 [2]: 16.1 µM (active) | IC50 [3]: 57 µM (inactive) | IC50 [4]: 14.7 µM (inactive)

Compound: Cc1ccc(-c2csc(N3CCN(c4cc5c(cc4Cl)nc(-c4ccncc4)n5CCOCCO)CC3)n2)cc1
AC50 (CAAX prenyl protease 2): 6.2 µM (active) | AC50 [5]: 231 µM (active)

IC50 (SUMO-activating enzyme [6]): 74.2 µM (active) | IC50 (SUMO-activating enzyme [7]): 4.2 µM (active) | EC50 [8]: 21.6 µM (active) | EC50 [9]: 14.9 µM (active)
Compound: CC(=O)c1ccc(-c2ccc(/C=C(/Sc3n[nH]c(C)n3)C(=O)O)o2)cc1

EC50 [10]: 9.2 µM (active) | EC50 [11]: 5.98 µM (active) | EC50 [12]: 2.71 µM (active)
Compound: Clc1ccc(N2N=C(c3cccs3)CC2c2ccco2)cc1 (centres undefined)
